# In US9951372B2, “Compounds and methods for assaying redox state of metabolically active cells and methods for measuring NAD(P)/NAD(P)H” (PROMEGA CORPORATION, priority 2011, dated 2018):
# Where two headings read alike, the source gives them in different places.
# Assays:
# [1] = target: T1, rat diaphorase (Rattus norvegicus, UniProt P05982); format: biochemical; conditions: for Fluorescence time course, Rat: 10 uM NADH
# T1 construct: purchased Sigma
# T1 sequence (P05982 2-274 limits assumed): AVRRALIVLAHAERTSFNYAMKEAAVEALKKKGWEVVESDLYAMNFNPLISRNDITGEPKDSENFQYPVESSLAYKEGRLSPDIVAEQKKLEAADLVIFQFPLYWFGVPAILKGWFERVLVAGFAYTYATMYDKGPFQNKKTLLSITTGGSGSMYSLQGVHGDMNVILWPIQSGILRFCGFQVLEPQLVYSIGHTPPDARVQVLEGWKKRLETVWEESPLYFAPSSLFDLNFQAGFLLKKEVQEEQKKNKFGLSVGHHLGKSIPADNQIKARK
# [2] = test system: HeLa cells; assay: Fluorescent imaging of live cells; format: cell-based; conditions: 10 μM substrate
# Protocol: HeLa cells were plated at 40,000 cell/well into wells of an 8-well chambered coverslip and incubated at 37° C.+5% CO2. The media (DMEM) was replaced with warm complete media (with 10% FBS) containing 10 μM PBI-4412, 4413, 4440 or 4441. Cells were then transferred to a confocal microscope for imaging using 10% λ488 nm laser power (4412, 4413, and 4441) or 5% laser power (4440). All images (FIGS. 6a-d) are at 30× magnification.
# [3] = test system: Clostridium diaphorase; assay: Fluorescent NADH detection assay, Clostridium diaphorase; format: biochemical; conditions: for FLUs: 1 u/ml Clostridium diaphorase; for Fluorescence time course, Clostridium: 10 uM NADH
# Protocol: Each fluorescent substrate (PBI-4412, 4413, 4440, and 4441) was incubated at 920 μM with 0 μM or 10 μM NADH (Sigma) or a titration of NADH (Table 8) and 1 u/ml rat diaphorase (Sigma) or 1 u/ml Clostridium diaphorase (Sigma) in a volume of 100 μl in 50 mM Tris pH 7.5. Single reactions were prepared in the wells of a 96-well black plate at room temperature. Fluorescence was monitored over the course of two hours at excitation and emission wavelengths of 485 and 527, respectively, using a fluorescence plate reader. […] Table 7 and FIGS. 24a-b show the reaction time course with each substrate with 10 uM NADH. Table 8 and FIG. 25 show the NADH titration at 60 minutes with PBI-4440 and 4412 with rat diaphorase.
# [4] = test system: HEK293 cells; assay: Measuring metabolically active cells with quinone fluorescein derivatives; format: cell-based; conditions: HEK293 cell dilutions; 60 minutes; 480ex/530em
# Protocol: i. Two-fold serial dilutions of HEK293 cells were prepared in full DMEM media, and 100 μl per well were transferred into wells of 96-well plates. Compounds PBI 4440 and 4412 were diluted in full DMEM media to make 20 μM and 10 μM stocks, respectively. 100 μl of the prepared compound stocks were added to the cells, and the cells were incubated for 60 minutes in a 37° C., 5% CO2 incubator. Following incubation, the cells were removed from incubator, and fluorescence measured with Tecan Infinite 500 at 480ex/Em530em wavelength.
# [5] = test system: Jurkat cells; assay: Measuring metabolically active cells with quinone coelenterazine derivatives; format: cell-based, human; conditions: Jurkat cell dilutions; 30 minute incubation; Oplophorus luciferase detection reagent
# Protocol: Two-fold serial dilutions of Jurkat cells were prepared in PBS, and 50 μl per well transferred to wells in 96-well plates. Compound PBI 4600 and 4601 were diluted in PBS to make 50 μM and 100 μM stocks, respectively. 10 μl of prepared compound stocks were added to the cells, and the cells were placed into 37° C., 5% CO2 incubator. Following a 30 minute incubation, the cells were removed from incubator, cooled at room temperature for 10 minutes, and 50 μl of Oplophorus luciferase detection reagent (Promega Corporation) added directly to the wells. The samples were mixed, incubated at room temperature for 20 minutes, and luminescence measured.
# [6] = 0 μM NADH, 60 min, 1 u/ml rat diaphorase
# [7] = 10 μM NADH, 60 min, 1 u/ml rat diaphorase, substrate 920 μM
# [8] = NADH 0 μM, 60 minutes, rat diaphorase
# [9] = NADH 1.25 μM, 60 minutes, rat diaphorase
# [10] = NADH 2.5 μM, 60 minutes, rat diaphorase
# [11] = NADH 5 μM, 60 minutes, rat diaphorase
# [12] = NADH 10 μM, 60 minutes, rat diaphorase
# [13] = NADH 20 μM, 60 minutes, rat diaphorase
# [14] = NADH 40 μM, 60 minutes, rat diaphorase
# [15] = NADH 80 μM, 60 minutes, rat diaphorase
# [16] = 10 μM NADH, 60 min, substrate 920 μM
compound,measurement,setting,value
"CC1=C(C)C(=O)C(C(C)(C)CC(=O)N(C)CCN(C)C(=O)Oc2ccc3c(c2)Oc2cc(O)ccc2C32OC(=O)c3ccccc32)=C(C)C1=O (centres unmarked) [PBI 4440, Mono-quinone trimethyllock diamine fluorescein]",FLUs,[1]; [6],2922 FLUs
same,FLUs,[1]; [7],180909 FLUs
same,"Fluorescence time course, Rat",[1]; 2 min,6473 FLUs
same,"Fluorescence time course, Rat",[1]; 4 min,18626 FLUs
same,"Fluorescence time course, Rat",[1]; 5 min,28997 FLUs
same,"Fluorescence time course, Rat",[1]; 10 min,73216 FLUs
same,"Fluorescence time course, Rat",[1]; 20 min,133999 FLUs
same,"Fluorescence time course, Rat",[1]; 30 min,161355 FLUs
same,"Fluorescence time course, Rat",[1]; 40 min,173345 FLUs
same,"Fluorescence time course, Rat",[1]; 50 min,178374 FLUs
same,"Fluorescence time course, Rat",[1]; 60 min,180909 FLUs
same,"Fluorescence time course, Rat",[1]; 70 min,182618 FLUs
same,"Fluorescence time course, Rat",[1]; 80 min,182416 FLUs
same,"Fluorescence time course, Rat",[1]; 90 min,182263 FLUs
same,"Fluorescence time course, Rat",[1]; 100 min,181996 FLUs
same,"Fluorescence time course, Rat",[1]; 110 min,182253 FLUs
same,"Fluorescence time course, Rat",[1]; 120 min,182132 FLUs
same,FLUs,[1]; [8],2922 FLUs
same,FLUs,[1]; [9],24788 FLUs
same,FLUs,[1]; [10],50387 FLUs
same,FLUs,[1]; [11],99331 FLUs
same,FLUs,[1]; [12],180909 FLUs
same,FLUs,[1]; [13],309004 FLUs
same,FLUs,[1]; [14],304293 FLUs
same,FLUs,[1]; [15],305861 FLUs
same,reduction of substrate in live cells (confocal images),[2],only reduced once inside cells
same,FLUs,"[3]; 0 μM NADH, 60 min",3050 FLUs
same,FLUs,[3]; [16],43362 FLUs
same,"Fluorescence time course, Clostridium",[3]; 2 min,3611 FLUs
same,"Fluorescence time course, Clostridium",[3]; 4 min,7197 FLUs
same,"Fluorescence time course, Clostridium",[3]; 5 min,10142 FLUs
same,"Fluorescence time course, Clostridium",[3]; 10 min,20624 FLUs
same,"Fluorescence time course, Clostridium",[3]; 20 min,33781 FLUs
same,"Fluorescence time course, Clostridium",[3]; 30 min,39807 FLUs
same,"Fluorescence time course, Clostridium",[3]; 40 min,42268 FLUs
same,"Fluorescence time course, Clostridium",[3]; 50 min,43000 FLUs
same,"Fluorescence time course, Clostridium",[3]; 60 min,43362 FLUs
same,"Fluorescence time course, Clostridium",[3]; 70 min,43750 FLUs
same,"Fluorescence time course, Clostridium",[3]; 80 min,43425 FLUs
same,"Fluorescence time course, Clostridium",[3]; 90 min,43468 FLUs
same,"Fluorescence time course, Clostridium",[3]; 100 min,43296 FLUs
same,"Fluorescence time course, Clostridium",[3]; 110 min,43005 FLUs
same,"Fluorescence time course, Clostridium",[3]; 120 min,43150 FLUs
same,relationship of fluorescence to cell number,[4],linear correlation between cell number and fluorescence
CC1=C(C)C(=O)C(C(C)(C)CC(=O)N(C)CCN(C)C(=O)Oc2c(Cc3ccco3)nc3c(Cc4ccccc4)nc(-c4ccccc4)cn23)=C(C)C1=O [PBI 4600],relationship of luminescence to cell number,[5],linear correlation between cell number and luminescence
"CC1=CC(=O)C(C)=C(C(C)(C)CC(=O)N(C)CCN(C)C(=O)Oc2ccc3c(c2)Oc2cc(O)ccc2C32OC(=O)c3ccccc32)C1=O (centres unmarked) [PBI 4412, Mono-quinone trimethyllock diamine fluorescein]",FLUs,[1]; [6],3772 FLUs
same,FLUs,[1]; [7],170571 FLUs
same,"Fluorescence time course, Rat",[1]; 2 min,10099 FLUs
same,"Fluorescence time course, Rat",[1]; 4 min,24171 FLUs
same,"Fluorescence time course, Rat",[1]; 5 min,33247 FLUs
same,"Fluorescence time course, Rat",[1]; 10 min,62502 FLUs
same,"Fluorescence time course, Rat",[1]; 20 min,106834 FLUs
same,"Fluorescence time course, Rat",[1]; 30 min,133278 FLUs
same,"Fluorescence time course, Rat",[1]; 40 min,151941 FLUs
same,"Fluorescence time course, Rat",[1]; 50 min,162636 FLUs
same,"Fluorescence time course, Rat",[1]; 60 min,170571 FLUs
same,"Fluorescence time course, Rat",[1]; 70 min,175380 FLUs
same,"Fluorescence time course, Rat",[1]; 80 min,177516 FLUs
same,"Fluorescence time course, Rat",[1]; 90 min,178423 FLUs
same,"Fluorescence time course, Rat",[1]; 100 min,180027 FLUs
same,"Fluorescence time course, Rat",[1]; 110 min,182051 FLUs
same,"Fluorescence time course, Rat",[1]; 120 min,181077 FLUs
same,FLUs,[1]; [8],3772 FLUs
same,FLUs,[1]; [9],26228 FLUs
same,FLUs,[1]; [10],51005 FLUs
same,FLUs,[1]; [11],97995 FLUs
same,FLUs,[1]; [12],170571 FLUs
same,FLUs,[1]; [13],183286 FLUs
same,FLUs,[1]; [14],185532 FLUs
same,FLUs,[1]; [15],183372 FLUs
same,reduction of substrate in live cells (confocal images),[2],only reduced once inside cells
same,FLUs,"[3]; 0 μM NADH, 60 min",3940 FLUs
same,FLUs,[3]; [16],125352 FLUs
same,"Fluorescence time course, Clostridium",[3]; 2 min,9933 FLUs
same,"Fluorescence time course, Clostridium",[3]; 4 min,24883 FLUs
same,"Fluorescence time course, Clostridium",[3]; 5 min,33881 FLUs
same,"Fluorescence time course, Clostridium",[3]; 10 min,60458 FLUs
same,"Fluorescence time course, Clostridium",[3]; 20 min,95260 FLUs
same,"Fluorescence time course, Clostridium",[3]; 30 min,112465 FLUs
same,"Fluorescence time course, Clostridium",[3]; 40 min,120688 FLUs
same,"Fluorescence time course, Clostridium",[3]; 50 min,123934 FLUs
same,"Fluorescence time course, Clostridium",[3]; 60 min,125352 FLUs
same,"Fluorescence time course, Clostridium",[3]; 70 min,126364 FLUs
same,"Fluorescence time course, Clostridium",[3]; 80 min,125242 FLUs
same,"Fluorescence time course, Clostridium",[3]; 90 min,124786 FLUs
same,"Fluorescence time course, Clostridium",[3]; 100 min,124434 FLUs
same,"Fluorescence time course, Clostridium",[3]; 110 min,124460 FLUs
same,"Fluorescence time course, Clostridium",[3]; 120 min,124182 FLUs
same,relationship of fluorescence to cell number,[4],linear correlation between cell number and fluorescence
CC1=C(C)C(=O)C(C(C)(C)CC(=O)N(C)CCN(C)C(=O)Oc2c(Cc3ccccc3)nc3c(Cc4ccccc4)nc(-c4ccccc4)cn23)=C(C)C1=O [PBI 4601],relationship of luminescence to cell number,[5],linear correlation between cell number and luminescence
"CC1=CC(=O)C(C)=C(C(C)(C)CC(=O)N(C)CCN(C)C(=O)Oc2ccc3c(c2)Oc2cc(OC(=O)N(C)CCN(C)C(=O)CC(C)(C)C4=C(C)C(=O)C=C(C)C4=O)ccc2C32OC(=O)c3ccccc32)C1=O [PBI 4413, Bis-quinone trimethyllock diamine fluorescein]",FLUs,[1]; [6],39 FLUs
same,FLUs,[1]; [7],7397 FLUs
same,"Fluorescence time course, Rat",[1]; 2 min,180 FLUs
same,"Fluorescence time course, Rat",[1]; 4 min,419 FLUs
same,"Fluorescence time course, Rat",[1]; 5 min,545 FLUs
same,"Fluorescence time course, Rat",[1]; 10 min,1091 FLUs
same,"Fluorescence time course, Rat",[1]; 20 min,2151 FLUs
same,"Fluorescence time course, Rat",[1]; 30 min,3407 FLUs
same,"Fluorescence time course, Rat",[1]; 40 min,4669 FLUs
same,"Fluorescence time course, Rat",[1]; 50 min,6127 FLUs
same,"Fluorescence time course, Rat",[1]; 60 min,7397 FLUs
same,"Fluorescence time course, Rat",[1]; 70 min,9925 FLUs
same,"Fluorescence time course, Rat",[1]; 80 min,10959 FLUs
same,"Fluorescence time course, Rat",[1]; 90 min,12101 FLUs
same,"Fluorescence time course, Rat",[1]; 100 min,13732 FLUs
same,"Fluorescence time course, Rat",[1]; 110 min,15434 FLUs
same,"Fluorescence time course, Rat",[1]; 120 min,16666 FLUs
same,reduction of substrate in live cells (confocal images),[2],only reduced once inside cells
same,FLUs,"[3]; 0 μM NADH, 60 min",255 FLUs
same,FLUs,[3]; [16],2517 FLUs
same,"Fluorescence time course, Clostridium",[3]; 2 min,264 FLUs
same,"Fluorescence time course, Clostridium",[3]; 4 min,457 FLUs
same,"Fluorescence time course, Clostridium",[3]; 5 min,698 FLUs
same,"Fluorescence time course, Clostridium",[3]; 10 min,1195 FLUs
same,"Fluorescence time course, Clostridium",[3]; 20 min,2167 FLUs
same,"Fluorescence time course, Clostridium",[3]; 30 min,2896 FLUs
same,"Fluorescence time course, Clostridium",[3]; 40 min,3329 FLUs
same,"Fluorescence time course, Clostridium",[3]; 50 min,3519 FLUs
same,"Fluorescence time course, Clostridium",[3]; 60 min,3664 FLUs
same,"Fluorescence time course, Clostridium",[3]; 70 min,3803 FLUs
same,"Fluorescence time course, Clostridium",[3]; 80 min,3841 FLUs
same,"Fluorescence time course, Clostridium",[3]; 90 min,3798 FLUs
same,"Fluorescence time course, Clostridium",[3]; 100 min,3801 FLUs
same,"Fluorescence time course, Clostridium",[3]; 110 min,3820 FLUs
same,"Fluorescence time course, Clostridium",[3]; 120 min,3821 FLUs
